# Several values for one entry are separate records, joined by “and”; a condition that tells them apart may be missing. Equal values may be shown once. Entries after “also recorded” stand apart in the source; their conditions may differ. Read-outs that look alike come from different tables or passages of the source. Where a SMILES comes first, the peptide text is derived from it. [ ]: non-standard residue; d: D form. Ahx = NCCCCCC(=O)O
# Tests used:
# GST-Bcl-2 = GST-Bcl-2 (Homo sapiens, UniProt P10415); assay: Bcl-2/FITC-TR3 fluorescence polarization competition assay (PBS + Tween-20); details: for displacement of FITC-TR3-r8 from Bcl-2: result in words; for Bcl-2 H Coefficient: Hill coefficient of Bcl-2 dose-response curve
# GST-Bcl-2, sequence (P10415 1-218 limits assumed): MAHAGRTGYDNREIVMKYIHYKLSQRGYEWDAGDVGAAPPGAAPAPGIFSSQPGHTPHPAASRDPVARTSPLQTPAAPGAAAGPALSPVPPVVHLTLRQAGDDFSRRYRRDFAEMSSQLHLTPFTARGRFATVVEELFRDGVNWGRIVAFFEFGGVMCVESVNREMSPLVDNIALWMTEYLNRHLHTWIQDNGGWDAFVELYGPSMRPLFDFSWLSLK
# Method: For the Chembridge screen, IC50s for each compound with respect to the Bcl-B/FITC-TR3 (In Hepes/β-glycerophophate/tween-20) fluorescence polarization and the Bcl-2/FITC-TR3 (In PBS+tween-20) fluorescence polarization assays were identified.
# Fluorescence polarization was then measured using an Analyst HT Multi-Mode Plate Reader (LJL Biosystems, Sunnyvale, Calif.).
# GST-Hsp70 = GST-Hsp70 (Homo sapiens, UniProt P0DMV8); assay: FITC-ATP/GST-Hsp70 fluorescence polarization counter-screen; assay type: binding; details: HSP/FITC-ATP counter screen
# GST-Hsp70, sequence (P0DMV8 whole entry): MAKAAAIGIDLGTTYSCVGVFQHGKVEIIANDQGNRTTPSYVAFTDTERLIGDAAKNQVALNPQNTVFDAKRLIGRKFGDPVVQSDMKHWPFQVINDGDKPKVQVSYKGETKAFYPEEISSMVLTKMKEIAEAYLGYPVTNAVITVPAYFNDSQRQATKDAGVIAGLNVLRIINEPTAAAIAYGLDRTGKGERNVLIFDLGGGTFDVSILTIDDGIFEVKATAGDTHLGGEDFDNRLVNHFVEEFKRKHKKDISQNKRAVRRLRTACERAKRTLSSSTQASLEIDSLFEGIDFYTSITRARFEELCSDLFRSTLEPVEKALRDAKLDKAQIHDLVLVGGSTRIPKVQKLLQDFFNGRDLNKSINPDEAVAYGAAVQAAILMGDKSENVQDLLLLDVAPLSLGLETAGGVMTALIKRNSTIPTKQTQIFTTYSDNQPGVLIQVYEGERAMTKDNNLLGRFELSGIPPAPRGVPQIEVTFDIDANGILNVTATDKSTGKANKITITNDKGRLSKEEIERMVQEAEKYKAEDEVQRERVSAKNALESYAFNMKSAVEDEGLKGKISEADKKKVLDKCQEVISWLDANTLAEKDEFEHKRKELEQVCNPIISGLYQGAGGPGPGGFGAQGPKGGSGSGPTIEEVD
# Method: Dose-response curves were then generated (fluorescent compounds were eliminated), followed by counter-screening using a biologically unrelated FPA (GST-Hsp70/FITC-ATP).
# A number of assays were then performed to eliminate non-specific or irreproducible hits (FIG. 21). […] Second, compound dose-response curves were generated using the fluorescence polarization assay. […] Finally, 1D-NMR was used to test the compounds for binding to GST-Bcl-B versus GST (as a negative control) (FIG. 22).
# GST-Bcl-B [1] = molecular target: T1, GST-Bcl-B (Homo sapiens, UniProt Q9HD36); assay: Bcl-B/FITC-TR3-r8 fluorescence polarization competition (displacement) assay, HTS and dose-response; details: for Bcl-B H Coefficient: Hill coefficient of Bcl-B dose-response curve; for displacement of FITC-TR3-r8 from GST-Bcl-B: result in words
# T1 sequence (Q9HD36 1-182 limits assumed): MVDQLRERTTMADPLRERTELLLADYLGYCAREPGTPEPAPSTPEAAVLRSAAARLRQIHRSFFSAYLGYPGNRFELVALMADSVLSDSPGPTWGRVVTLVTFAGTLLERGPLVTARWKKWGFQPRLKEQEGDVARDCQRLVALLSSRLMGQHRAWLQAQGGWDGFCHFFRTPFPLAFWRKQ
# GST-Bcl-B [2] = molecular target: T1, GST-Bcl-B; assay: biochemical
# [3] = system: HeLa Tet-On-Bcl-B (HTO2) cells; assay: Cell viability (ATPlite) in HeLa Tet-On-Bcl-B cells with or without doxycycline; assay type: cell-based; details: 24 h, read-out: concentration required to reduce HeLa Tet-On-Bcl-B cell viability by 50%
# Method: FIG. 24A is a photograph of a blot wherein HeLa Tet-On (HTO1) and HeLa Tet-On-Bcl-B (HTO2) cells were treated with or without doxycycline (dox) for 24 h to induce their tetracycline-responsive promoters. Protein lysates were collected, and immunoblotting was used to analyze Bcl-B and Hsc70 (for loading control) expression. In FIG. 24B the cells were treated with or without doxycycline for 24 h, and then with staurosporine at the indicated concentrations for 24 h. Cell viability was measured using ATPlite. In FIG. 24C HeLa Tet-On-Bcl-B (HTO2) cells were treated with or without doxacycline as above. Compounds were then added at the indicated concentrations, and cell viability was measured 24 h later using ATPlite. The data shown represent mean±standard deviation (n=3).
# HeLa Tet-On-Bcl-B cells were generated by stably transfecting the HeLa Tet-On cell line (Clontech, Mountain View, Calif.) with a pTRE2hyg vector (Clontech) containing the Bcl-B gene, using lipofectAMINE PLUS (Invitrogen, Carlsbad, Calif.). Briefly, cells were seeded overnight and transfected at 50% confluency for 3 h. After 24 h, the cells were re-seeded at <10% confluence and cultured in media (DMEM with 10% Tet System Approved FBS (Clontech)) containing G418 (100 μg/mL) and hygromycin B (300 μg/mL) for pTet-On and pTRE2hyg/Bcl-B plasmid maintenance, respectively. Positive foci resistant to both antibiotics were expanded. Colonies were then cultured in the presence or absence of doxycycline (Clontech, 1 μg/mL) for 16 h, and induced Bcl-B expression was confirmed by Western blot analysis. A previously developed polyclonal Bcl-B antibody^17 and an Hsc70 antibody (for protein concentration comparison; Santa Cruz Biotechnology, Santa Cruz, Calif.) were used.
# Cells were seeded in 96-well plates at 5,000 cells/well in 100 μL of growth medium and allowed to incubate for 24 h. Afterwards, cells were incubated in the presence or absence of doxycycline (1 μg/mL) for another 24 h (to induce Bcl-B expression). Compounds were then added, as indicated, in a volume of 5 μL. The next day, cell viability was measured using the ATPlite Luminescence ATP Detection System (PerkinElmer, Waltham, Mass.) according to the manufacturer's specifications.
SMILES,Bcl-2 H Coefficient (GST-Bcl-2),Bcl-B H Coefficient (GST-Bcl-B [1]),IC50 (GST-Bcl-B [2]),further results
"CN(C)CC[C@H](CSc1ccccc1)Nc1ccc(S(=O)(=O)NC(=O)c2ccc(N3CCN(Cc4ccccc4-c4ccc(Cl)cc4)CC3)cc2)cc1[N+](=O)[O-] [ABT-737, reference compound]",,,,displacement of FITC-TR3-r8 from Bcl-2 (GST-Bcl-2): failed to block FITC-TR3-9-r8 peptide binding to Bcl-2; also recorded: did not effectively displace FITC-TR3-r8 from Bcl-2
Nc1ccc(Oc2ccc(N)c(N)c2)cc1N [Compound 5152592],1.428,1.303,,HSP70 IC50 (Hill) (GST-Hsp70): High; IC50 (GST-Bcl-B [1]; Bcl-B IC50 (g/L)): 5.37 µM; IC50 (GST-Bcl-B [1]; Bcl-B IC50 (uM)): 5.37 µM
Clc1ccc(C2C=C(c3ccccc3)Nc3ncnn32)cc1 (stereo not shown) [Compound 5223675],,0.939,14.2 µM,HSP70 IC50 (Hill) (GST-Hsp70): high
OC1=c2ccccc2=C(O)C12N=Nc1nnc(O)n1N2 [Compound 5627952],1.575,0.9192,25.2 µM and 23.8 µM,
O=C(COc1ccc(Cl)cc1Cl)Nc1nnc(-c2ccco2)[nH]1 [Compound 5632817],1.078,0.9962,17.9 µM,
Oc1ccc(Nc2nc(-c3ccccn3)cs2)cc1 [Compound 5662807],1.241,1.182,3.69 µM,
O=C(O)C1Nc2c(Cl)cc(Cl)cc2C2C=CCC12 (stereo not shown) [Compound 5736518],2.956,1.13,1.03 µM,IC50 (GST-Hsp70; read-out: HSP70 IC50 (Hill) (converted)): 37 µM
O=C(O)c1cccc(-c2ccc(/C=N/Nc3ccc([N+](=O)[O-])cn3)o2)c1 [Compound 5908920],,0.6738,9.64 µM,
O=C(O)C1Nc2c(C(=O)N3CCCC3)cccc2C2C=CCC12 (stereo not shown) [Compound 5947449],,1.761,4.95 µM,
Cc1ccc(C)n1-c1ccc(Cl)cc1C(=O)O [Compound 5950160],1.457,0.9279,0.942 µM,HSP70 IC50 (Hill) (GST-Hsp70): high
Cc1ccc(C)n1-c1cc(C(=O)O)cc(C(=O)O)c1 [Compound 5950689],0.6186,1.032,0.542 µM,
COc1cc(N)ccc1-n1c(C)ccc1C [Compound 5953790],,2.719,32.9 µM,
Cc1ccc(C)n1-c1ccc(C(=O)O)c(Cl)c1 [Compound 5956338],1.653,0.9562,9.96 µM,
Cc1ccc(C)n1-c1ccccc1C(=O)O [Compound 5959185],,2.868,0.621 µM,
Cc1ccc(C)n1-c1ccc(OCC(=O)O)cc1 [Compound 5988031],,0.6411,8.75 µM,
CC1=C(C#N)c2nc(N)c(C#N)c(C)c2/C1=C/c1ccc(-c2ccc(C(=O)O)c(Cl)c2)o1 [Compound 6025233],3.081,1.206,1.65 µM,HSP70 IC50 (Hill) (GST-Hsp70): high
CC(=O)c1cc(C#N)c(SCC(=O)c2ccc(O)c(O)c2)nc1C [Compound 6033363],,2.08,11 µM,
Cc1cc(I)c2c(c1)C1C=CCC1C(C(=O)O)N2 (stereo not shown) [Compound 6048134],,1.406,20.7 µM,
O=C(O)c1cccc2c1NC(c1cccc(Cl)c1Cl)C1CC=CC21 (stereo not shown) [Compound 6048905],,2.809,2.57 µM and 2.67 µM,
Nc1n[nH]c2ncc3cc4ccccc4nc3c12 [Compound 6051011],,2.36,3.74 µM and 2.89 µM,
CN1CCN(CN2C(=O)/C(=N\NC(=O)CSc3nc4ccccc4s3)c3ccccc32)CC1 [Compound 6062681],,2.531,12.9 µM,
Cc1ccc(-c2cc(C(=O)O)c3cc(Br)ccc3n2)o1 [Compound 6131498],,1.896,16.5 µM,
"O=C(O[C@@H]1Cc2c(O)cc(O)cc2O[C@@H]1c1cc(O)c(O)c(O)c1)c1cc(O)c(O)c(O)c1 [EGCG, epigallecatechin]",,,,IC50 ([3]; in the absence of Bcl-B (without doxycycline)): 79 µM; IC50 ([3]; in the presence of Bcl-B (with doxycycline)): ~93 µM; displacement of FITC-TR3-r8 from GST-Bcl-B (GST-Bcl-B [1]): none of these reagents displaced FITC-TR3-r8
"CC(=O)N[C@@H](Cc1ccccc1)C(=O)N[C@@H](CO)C(=O)N[C@@H](CCCNC(=N)N)C(=O)N[C@@H](CO)C(=O)N[C@@H](CC(C)C)C(=O)N[C@@H](Cc1c[nH]cn1)C(=O)N[C@@H](CO)C(=O)N[C@@H](CC(C)C)C(=O)N[C@@H](CC(C)C)C(=O)NCC(=O)NCCCCCC(=O)N[C@H](CCCNC(=N)N)C(=O)N[C@H](CCCNC(=N)N)C(=O)N[C@H](CCCNC(=N)N)C(=O)N[C@H](CCCNC(=N)N)C(=O)N[C@H](CCCNC(=N)N)C(=O)N[C@H](CCCNC(=N)N)C(=O)N[C@H](CCCNC(=N)N)C(=O)N[C@H](CCCNC(=N)N)C(N)=O [TR3-r8, reference compound] (Ac-FSRSLHSLLG[Ahx][dR][dR][dR][dR][dR][dR][dR][dR]-NH2)",,,,displacement of FITC-TR3-r8 from Bcl-2 (GST-Bcl-2): effectively competed for binding; EC50 (GST-Bcl-B [1]): 0.0828 µM; displacement of FITC-TR3-r8 from GST-Bcl-B (GST-Bcl-B [1]): displaced FITC-TR3-r8 as expected

# From patent US20090118135A1, “METHODS AND COMPOUNDS FOR REGULATING APOPTOSIS” (The Burnham Institute, priority 2007, published 2009)
